From US9850219B1, “Phenothiazine derivatives and methods of use thereof” (Acenda Pharma, Inc., priority 2016, dated 2017) come the findings set out here.

Assay type in all cases: cell-based, Human
Assay [1] relates to H441GL. Nature of the assay: Cytotoxicity, sulforhodamine B (SRB) assay, H441GL. The settings on record: 48 h, NA indicates no activity. From the text: (§1) Human non-small cell lung cancer (NSCLC) cell lines (e.g., A549, H441GL and H1299), colon cancer cell lines (e.g., HCT116 and DLD1), breast cancer cell lines (e.g., MCF7 and MDA-MB-231), and pancreatic cancer cell lines (e.g., PANC-1 and SUIT-2) were used in cytotoxicity studies. […] A549 and H441GL are EGFR-wild type adenocarcinoma cell lines. H1299 is an EGFR-wild type large cell carcinoma cell line. HCT116 and DLD1 are metastatic colon cell lines. MCF7 is a hormone-responsive breast cancer cell line. MDA-MB-231 is a triple-negative breast cancer cell line. PANC-1 is a metastatic adenocarcinoma cell line. SUIT-2 is a pancreatic ductal adenocarcinoma cell line.
(§2) All cell lines were grown and maintained in RPMI medium supplemented with 10% fetal bovine serum (FBS, Invitrogen), 2 mM L-glutamine, 100 U/mL penicillin, and 100 μg/mL streptomycin. For cell the culture experiment, stock solution (10 mM) of each test compound was dissolved in dimethyl sulfoxide (DMSO; Sigma).
(§3) Cells were plated in 96-well plates at a density of 2000 cells per well in triplicate. The cells in each well were treated on the third day (to ensure proper plating efficiency and vitality) with different concentrations (0-50 μM) of each test compound for 48 h.
(§4) Cell viability was assessed using the sulforhodamine B (SRB) assay. The medium was discarded, and the adherent cells were fixed by 100 μL of cold 10% trichloroacetic acid (w/v) in each well for 1 h at 4° C. After fixation, cells were stained with 100 μL/well of 0.4% (w/v, in 1% acetic acid) SRB solution for 30 min at room temperature, and then washed 5 times with 1% acetic acid. After air-drying, 100 μL of 10 mM Tris base was added to each well and the absorbance was read at 530 nm. Cytotoxicity is expressed as the percent of cells in drug treated wells relative to number of cells in the solvent only control (set to 100%). Each experiment was performed independently in triplicate and cytotoxicity IC50 value of each test compound was calculated from cytotoxicity data obtained at various concentrations.

The test system of assay [2] is A549. Kind of assay: Cytotoxicity, sulforhodamine B (SRB) assay, A549. Conditions: A549, 48 h, NA indicates no activity.
Description: as §1, §2, §3, §4

The test system of assay [3] is lung cancer cells. Nature of the assay: Cytotoxicity SRB assay, summary of Table 2. The settings on record: summary in words of Table 2.
Description: Human non-small cell lung cancer (NSCLC) cell lines (e.g., A549, H441GL and H1299), colon cancer cell lines (e.g., HCT116 and DLD1), breast cancer cell lines (e.g., MCF7 and MDA-MB-231), and pancreatic cancer cell lines (e.g., PANC-1 and SUIT-2) were used in cytotoxicity studies. These NSCLC cell lines have intrinsic resistance to epidermal growth factor receptor (EGFR) inhibitors, e.g., gefitinib. A549 and H441GL are EGFR-wild type adenocarcinoma cell lines. H1299 is an EGFR-wild type large cell carcinoma cell line. HCT116 and DLD1 are metastatic colon cell lines. MCF7 is a hormone-responsive breast cancer cell line. MDA-MB-231 is a triple-negative breast cancer cell line. PANC-1 is a metastatic adenocarcinoma cell line. SUIT-2 is a pancreatic ductal adenocarcinoma cell line.
as §3, §4
NA indicates no activity.

For `COCCOCCOCCOCCOCCOCCOCCOCCOCCOCCOCCOCCOCCOCCOCCOCCN1CCN(CCCN2c3ccccc3Sc3ccc(Cl)cc32)CC1` [Compound 4-4a], the figures for the IC50 in assay [1] and in assay [2] were 12.9 µM and 20.2 µM, respectively. The “inhibition of cell proliferation of lung cancer cells” value (shortened to “inhibition”) in assay [3] is reported as “inhibit cell proliferation”.

The compound `COCCOCCOCCOCCOCCOCCOCCOCCOCCOCCOCCOCCOCCOCCOCCOCCN1CCN(CCCN2c3ccccc3Sc3ccc(C(F)(F)F)cc32)CC1` [Compound 4-4b] showed a concentration for half-maximal inhibition (IC50) in assay [1] of 36.4 µM.

On to `COCCOCCOCCOCCOCCOCCOCCOCCOCCOCCOCCOCCOCCOCCOCCOCCOC(=O)N1CCN(CCCN2c3ccccc3Sc3ccc(Cl)cc32)CC1` [Compound 5-4a, NDP-CO—O—[CH2CH2O]16—CH3], for which the IC50 in assay [1] was found to be 3 µM; in assay [2], 6.2 µM. Further, the “inhibition” value in assay [3] is reported as “inhibit cell proliferation”.

Regarding `COCCOCCOCCOCCOCCOCCOCCOCCOCCOCCOCCOCCOCCOCCOCCOCCOC(=O)N1CCN(CCCN2c3ccccc3Sc3ccc(C(F)(F)F)cc32)CC1` [Compound 5-4b, NDT-CO—O—[CH2CH2O]16—CH3], the figures for the 50% inhibitory concentration (IC50) in assay [1] and in assay [2] were 17.5 µM and 13.8 µM, respectively. Besides, the “inhibition” value in assay [3] is “inhibit cell proliferation”.

For the compound `COCCOCCOCCOCC(=O)N1CCN(CCCN2c3ccccc3Sc3ccc(Cl)cc32)CC1` [Compound 6-1a, NDP-CO—[CH2CH2O]3—CH3], the 50% inhibitory concentration (IC50) in assay [1] (Homo sapiens) is 21.5 µM; in assay [2] (Homo sapiens) it was 25.8 µM. Moreover, the “inhibition” value in assay [3] is “inhibit cell proliferation”.

In the case of `COCCOCCOCCOCC(=O)N1CCN(CCCN2c3ccccc3Sc3ccc(C(F)(F)F)cc32)CC1` [Compound 6-1b, NDT-CO—[CH2CH2O]3—CH3], the 50% inhibitory concentration (IC50) turned out to be 16.2 µM in assay [1] (Homo sapiens) and 17 µM in assay [2] (Homo sapiens). The “inhibition” value in assay [3] was “inhibit cell proliferation”.

On to `COCCOCCOCCOCCOCCOCCOCC(=O)N1CCN(CCCN2c3ccccc3Sc3ccc(Cl)cc32)CC1` [Compound 6-2a, NDP-CO—[CH2CH2O]6—CH3], for which the IC50 was found to be 25.2 µM in assay [1] (Homo sapiens) and 31.5 µM in assay [2] (Homo sapiens). Moreover, the “inhibition” value in assay [3] is on record as “inhibit cell proliferation”.

`COCCOCCOCCOCCOCCOCCOCC(=O)N1CCN(CCCN2c3ccccc3Sc3ccc(C(F)(F)F)cc32)CC1` [Compound 6-2b, NDT-CO—[CH2CH2O]6—CH3]: the IC50 in assay [1] and in assay [2] was 15.5 µM each time. Also, in assay [3], the “inhibition” value is on record as “inhibit cell proliferation”.

For the compound `COCCOCCOCCOCCOCCOCCOCCOCCOCCOCCOCCOCCOCC(=O)N1CCN(CCCN2c3ccccc3Sc3ccc(Cl)cc32)CC1` [Compound 6-3a, NDP-CO—[CH2CH2O]12—CH3], the half-inhibitory concentration (IC50) in assay [1] (Homo sapiens) worked out at 24.3 µM; in assay [2] (Homo sapiens), 22.3 µM. Also, the “inhibition” value in assay [3] is given as “inhibit cell proliferation”.

On to `COCCOCCOCCOCCOCCOCCOCCOCCOCCOCCOCCOCCOCC(=O)N1CCN(CCCN2c3ccccc3Sc3ccc(C(F)(F)F)cc32)CC1` [Compound 6-3b, NDT-CO—[CH2CH2O]12—CH3], for which half-maximal inhibition in assay [2] (IC50) required 20.6 µM.

In turn, `COCCOCCOCCOCCOCCOCCOCCOCCOCCOCCOCCOCCOCCOCCOCCOCCOCC(=O)N1CCN(CCCN2c3ccccc3Sc3ccc(Cl)cc32)CC1` [Compound 6-4a, NDP-CO—[CH2CH2O]16—CH3] showed a concentration for half-maximal inhibition (IC50) in assay [1] (Homo sapiens) of 39.1 µM.

Turning to `COCCOCCOCCOCCOCCOCCOCCOCCOCCOCCOCCOCCOCCOCCOCCOCCOCC(=O)N1CCN(CCCN2c3ccccc3Sc3ccc(C(F)(F)F)cc32)CC1` [Compound 6-4b, NDT-CO—[CH2CH2O]16—CH3], the IC50 in assay [1] (Homo sapiens) was found to be 30 µM; in assay [2] (Homo sapiens) it was 44.2 µM.
